What was measured:
[1] = molecular target: T1, GK-GKRP (glucokinase / glucokinase regulatory protein) (Homo sapiens, UniProt Q14397); assay: GKRP LC MS/MS Biochemical Assay (LCMS/MS); settings: formation of 13C-glucose-6-phosphate from 13C-glucose by LC MS/MS, human His-hepatic GK, fructose-6-phosphate
T1 sequence (Q14397 1-625): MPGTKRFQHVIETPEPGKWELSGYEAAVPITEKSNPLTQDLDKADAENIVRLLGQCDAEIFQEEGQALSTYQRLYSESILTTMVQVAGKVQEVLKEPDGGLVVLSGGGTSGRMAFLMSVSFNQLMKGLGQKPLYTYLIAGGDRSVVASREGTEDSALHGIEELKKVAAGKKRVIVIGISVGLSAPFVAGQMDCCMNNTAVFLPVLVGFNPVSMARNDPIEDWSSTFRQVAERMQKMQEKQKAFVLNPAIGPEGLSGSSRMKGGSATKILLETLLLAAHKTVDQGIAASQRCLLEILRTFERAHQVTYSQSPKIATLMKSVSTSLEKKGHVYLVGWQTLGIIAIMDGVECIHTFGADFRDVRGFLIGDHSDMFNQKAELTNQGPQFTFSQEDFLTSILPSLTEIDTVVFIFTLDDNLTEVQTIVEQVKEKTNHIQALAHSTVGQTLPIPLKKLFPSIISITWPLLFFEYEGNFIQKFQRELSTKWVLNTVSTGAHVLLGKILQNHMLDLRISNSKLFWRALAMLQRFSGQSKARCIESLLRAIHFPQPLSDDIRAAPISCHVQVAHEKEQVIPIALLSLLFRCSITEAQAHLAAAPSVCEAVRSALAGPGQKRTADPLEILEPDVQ
Outline: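 Human His-tagged hepatic GK (30 nM working stock, 5×) with GKRP in 50 mM Tris pH 7.5, 4 mM MgCl2, 6% DMSO; compound preincubated 30 min, then GK added for 30 min at room temperature. Acetonitrile-stopped; 13C-glucose-6-phosphate formed from 13C-glucose quantified by LC MS/MS.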

[2] = molecular target: T2, GK-GKRP (interaction between glucokinase and glucokinase regulatory protein) (Homo sapiens, UniProt Q14397); assay: GK-GKRP Binding Assay (Binding), AlphaScreen; settings: avi-tagged GKRP, GK-fluorescein, AlphaScreen beads, 1 μM sorbitol-6-phosphate; read-out: GK-GKRP IC50 (Binding)
T2 construct: made in house; host or cells: GKRP: baculovirus system
T2 sequence (Q14397 1-625): T1 sequence (Q14397 1-625)
Outline: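 Biotinylated, C-terminally avi-tagged human GKRP was preincubated 20 min at room temperature with compound, then fluorescein-labelled human hepatic GK was added (6 nM in the added buffer). The mix was incubated 2 h at room temperature in the dark before AlphaScreen reading. Buffer was 20 mM Tris pH 7.5, 0.05% BSA, 1 mM DTT, 1 μM sorbitol-6-phosphate.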

Row | SMILES | EC50 [1] [nM] | IC50 [2] [nM]
1 | Cc1c(C(NS(=O)(=O)c2ccc3c(c2)OCCCO3)c2ccccc2)oc2ccccc12 (racemic) [Example 44, N-((3-methyl-1-benzofuran-2-yl)(phenyl)methyl)-3,4-dihydro-2H-1,5-benzodioxepine-7-sulfonamide] | 480 | 1000
2 | C[C@](O)(c1ccnc(-c2cccc3cc([C@@H](NS(=O)(=O)c4ccc5c(c4)OCCCO5)c4ccccc4)sc23)c1)C(F)(F)F (racemic) [Example 70, N-(phenyl(7-(4-(2,2,2-trifluoro-1-hydroxy-1-methylethyl)-2-pyridinyl)-1-benzothiophen-2-yl)methyl)-3,4-dihydro-2H-1,5-benzodioxepine-7-sulfonamide] | 26 | 21
3 | CSc1ccccc1[C@H](NS(=O)(=O)c1ccc2c(c1)OCCCO2)c1cc2ccccc2o1 (single isomer, unassigned) [Example 19 Peak #1] | 290 | 970
4 | O=S(=O)(NC(c1ccccc1)c1cc2cccc(-c3ccccn3)c2s1)c1ccc2c(c1)OCCCO2 (racemic) [Example 71, N-(phenyl(7-(2-pyridinyl)-1-benzothiophen-2-yl)methyl)-3,4-dihydro-2H-1,5-benzodioxepine-7-sulfonamide] | 290 | 540
5 | O=S(=O)(NC(c1ccccc1)c1ccc2ccccc2c1)c1ccc2c(c1)OCCCO2 (racemic) [Example 55, N-(2-naphthalenyl(phenyl)methyl)-3,4-dihydro-2H-1,5-benzo dioxepine-7-sulfonamide] | 240 | 860
6 | COc1ccccc1C(NS(=O)(=O)c1ccc2c(c1)OCCCO2)c1cc2ccccc2o1 (racemic) [Example 17, N-(1-benzofuran-2-yl(2-methoxyphenyl)methyl)-3,4-dihydro-2H-1,5-benzodioxepine-7-sulfonamide] | 95 | 170
7 | Cc1cccc(F)c1C(NS(=O)(=O)c1ccc2c(c1)OCCCO2)c1cc2ccccc2o1 (racemic) [Example 5, N-(1-benzofuran-2-yl(2-fluoro-6-methylphenyl)methyl)-3,4-dihydro-2H-1,5-benzodioxepine-7-sulfonamide] | 790 | 1000
8 | Nc1cccc(C(NS(=O)(=O)c2ccc3c(c2)OCCCO3)c2cc3ccccc3o2)c1 (racemic) [Example 14, N-((3-aminophenyl)(1-benzofuran-2-yl)methyl)-3,4-dihydro-2H-1,5-benzodioxepine-7-sulfonamide] | 1600 | 1200
9 | O=S(=O)(NC(c1cc2ccccc2o1)c1ccccc1C(F)(F)F)c1ccc2c(c1)OCCCO2 (racemic) [Example 12, N-(1-benzofuran-2-yl(2-(trifluoromethyl)phenyl)methyl)-3,4-dihydro-2H-1,5-benzodioxepine-7-sulfonamide] | 320 | 1000
10 | O=S(=O)(NC(c1cc2ccccc2o1)c1nccs1)c1ccc2c(c1)OCCCO2 (racemic) [Example 34, N-(1-benzofuran-2-yl(1,3-thiazol-2-yl)methyl)-3,4-dihydro-2H-1,5-benzodioxepine-7-sulfonamide] | 2800 | 6600
11 | Cc1ccsc1C(NS(=O)(=O)c1ccc2c(c1)OCCCO2)c1cc2ccccc2o1 (racemic) [Example 33, N-(1-benzofuran-2-yl(3-methyl-2-thiophenyl)methyl)-3,4-dihydro-2H-1,5-benzodioxepine-7-sulfonamide] | 1200 | 1400
12 | CSc1ccccc1[C@@H](NS(=O)(=O)c1ccc2c(c1)OCCCO2)c1nc2cccnc2s1 (single isomer, unassigned) [Example 65 Peak #2] | 15 | 7

Other lines, results leading:

Row | EC50 [1] [nM] | IC50 [2] [nM] | SMILES
13 | 30 | 78 | O=S(=O)(N[C@@H](c1cc2ccccc2o1)c1ccccc1Cl)c1ccc2c(c1)OCCCO2 (single isomer, unassigned) [Example 20 Peak #2]
14 | 4600 | 11000 | O=S(=O)(NC(c1ccccc1)c1cc2cnccc2s1)c1ccc2c(c1)OCCCO2 (racemic) [Example 62, N-(phenyl(thieno[3,2-c]pyridin-2-yl)methyl)-3,4-dihydro-2H-1,5-benzodioxepine-7-sulfonamide]
15 | 20 | 4 | CSc1ccccc1C(NS(=O)(=O)c1ccc2c(c1)OCCCO2)c1cc2ccncc2s1 (racemic) [Example 64, N-((2-(methylsulfanyl)phenyl)(thieno[2,3-c]pyridin-2-yl)methyl)-3,4-dihydro-2H-1,5-benzodioxepine-7-sulfonamide]
16 | 58 | 150 | O=S(=O)(NC(c1cc2ccccc2o1)c1ccccc1Br)c1ccc2c(c1)OCCCO2 (racemic) [Example 22, N-(1-benzofuran-2-yl(2-bromophenyl)methyl)-3,4-dihydro-2H-1,5-benzodioxepine-7-sulfonamide]
17 | 27 | 57 | CSc1ccccc1C(NS(=O)(=O)c1ccc2c(c1)OCCCO2)c1cc2ccccc2s1 (racemic) [Example 41, N-(1-benzothiophen-2-yl(2-(methylsulfanyl)phenyl)methyl)-3,4-dihydro-2H-1,5-benzodioxepine-7-sulfonamide]
18 | > 20000 | 4000 | Cc1ccccc1[C@H](NS(=O)(=O)c1ccc2c(c1)OCCCO2)c1cc2ccccc2s1 (single isomer, unassigned) [Example 36 Peak #1]
19 | 31 | 25 | C=Cc1ccccc1C(NS(=O)(=O)c1ccc2c(c1)OCCCO2)c1cc2ccccc2s1 (racemic) [Example 38, N-(1-benzothiophen-2-yl(2-ethenylphenyl)methyl)-3,4-dihydro-2H-1,5-benzodioxepine-7-sulfonamide]
20 | 150 | 290 | Cc1ccccc1C(NS(=O)(=O)c1ccc2c(c1)OCCCO2)c1cc2ccccc2s1 (racemic) [Example 36, N-(1-benzothiophen-2-yl(2-methylphenyl)methyl)-3,4-dihydro-2H-1,5-benzodioxepine-7-sulfonamide]
21 | 38 | 130 | CCc1ccccc1[C@@H](NS(=O)(=O)c1ccc2c(c1)OCCCO2)c1cc2ccccc2s1 (single isomer, unassigned) [Example 37 Peak #2]
22 | 52 | 52 | COc1ccccc1[C@@H](NS(=O)(=O)c1ccc2c(c1)OCCCO2)c1cc2ccccc2o1 (single isomer, unassigned) [Example 17 Peak #2]
23 | 46 | 110 | COc1ccccc1C(NS(=O)(=O)c1ccc2c(c1)OCCCO2)c1cc2ccccc2s1 (racemic) [Example 40, N-(1-benzothiophen-2-yl(2-methoxyphenyl)methyl)-3,4-dihydro-2H-1,5-benzodioxepine-7-sulfonamide]
24 | 10 | 1 | CSc1ccccc1[C@@H](NS(=O)(=O)c1ccc2c(c1)OCCCO2)c1cc2ccncc2s1 (single isomer, unassigned) [Example 64 Peak #2]
25 | 82 | 72 | COc1ccccc1C(NS(=O)(=O)c1ccc2c(c1)OCCCO2)c1cc2ccncc2s1 (racemic) [Example 66, N-((2-methoxyphenyl)(thieno[2,3-c]pyridin-2-yl)methyl)-3,4-dihydro-2H-1,5-benzodioxepine-7-sulfonamide]

Reference: patent publication US20140155415A1, “BENZ[…] BENZODIOXINE COMPOUNDS THAT INTERACT WITH G[…] FOR THE TREATMENT OF DIABETES” (priority 2011, published 2014)
